In ChEMBL document CHEMBL1671660, “Efficacy of iclaprim against wild-type and thymidine kinase-deficient methicillin-resistant Staphylococcus aureus isolates in an in vitro fibrin clot model” (Antimicrob Agents Chemother, 2009):
Converted amounts (≈) assume the structure as drawn. The source made the active and inactive calls. The rule behind the calls is not given here.

Assays:
Staphylococcus aureus [1] = test: Bactericidal activity against methicillin-resistant Staphylococcus aureus AW6 at 40 ug/ml by time kill analysis in presence of 50% rat serum; format: functional, organism-based
Staphylococcus aureus [2] = test: Bactericidal activity against thymidine kinase-deficient methicillin-resistant Staphylococcus aureus AH1252 at 40 ug/ml by time kill analysis in presence of 50% rat serum; format: functional, organism-based
Staphylococcus aureus [3] = test: Bacteriostatic activity against methicillin-resistant Staphylococcus aureus AW6 infected in in vitro human fibrin clot model assessed as reduction in bacterial colony at 40 ug/ml after 24 hrs; format: functional, organism-based
Staphylococcus aureus [4] = test: Bactericidal activity against thymidine kinase-deficient methicillin-resistant Staphylococcus aureus AH1252 at 40 ug/ml by time kill analysis in presence of 50% human serum; format: functional, organism-based
Staphylococcus aureus [5] = test: Bactericidal activity against methicillin-resistant Staphylococcus aureus AW6 infected in in vitro rat fibrin clot model assessed as reduction in bacterial colony at 40 ug/ml after 48 hrs; format: functional, organism-based
Staphylococcus aureus [6] = test: Bactericidal activity against thymidine kinase-deficient methicillin-resistant Staphylococcus aureus AH1252 infected in in vitro rat fibrin clot model assessed as reduction in bacterial colony at 40 ug/ml after 48 hrs; format: functional, organism-based
Staphylococcus aureus [7] = test: Bactericidal activity against methicillin-resistant Staphylococcus aureus AW6 at 40 ug/ml by time kill analysis in presence of 50% human serum; format: functional, organism-based
Staphylococcus aureus [8] = test: Bactericidal activity against thymidine kinase-deficient methicillin-resistant Staphylococcus aureus AH1252 infected in in vitro rat fibrin clot model assessed as reduction in bacterial colony at 40 ug/ml after 24 hrs; format: functional, organism-based
Staphylococcus aureus [9] = test: Bacteriostatic activity against methicillin-resistant Staphylococcus aureus AW6 infected in in vitro rat fibrin clot model assessed as reduction in bacterial colony at 3.5 ug/ml after 48 hrs; format: functional, organism-based
Staphylococcus aureus [10] = test: Antimicrobial activity against methicillin-resistant Staphylococcus aureus AW6 grown on CAMHB media after 24 hrs by broth microdilution method in presence of protein depleted human serum; format: functional; conditions: AW6, 24 h
Staphylococcus aureus [11] = test: Antimicrobial activity against thymidine kinase-deficient methicillin-resistant Staphylococcus aureus AH1252 grown on CAMHB media after 24 hrs by broth microdilution method in presence of protein depleted rat serum; format: functional; conditions: AH1252, 24 h
Staphylococcus aureus [12] = test: Antimicrobial activity against methicillin-resistant Staphylococcus aureus AW6 grown on CAMHB media after 24 hrs by broth microdilution method in presence of protein depleted rat serum; format: functional; conditions: AW6, 24 h
Staphylococcus aureus [13] = test: Antimicrobial activity against thymidine kinase-deficient methicillin-resistant Staphylococcus aureus AH1252 grown on CAMHB media after 24 hrs by broth microdilution method; format: functional; conditions: AH1252, 24 h
Staphylococcus aureus [14] = test: Antimicrobial activity against thymidine kinase-deficient methicillin-resistant Staphylococcus aureus AH1252 grown on CAMHB media after 24 hrs by broth microdilution method in presence of 50% rat serum and 0.2 U/ml thymidine phosphorylase; format: functional; conditions: AH1252, 24 h
[15] = Protein binding in rat serum; format: ADME, cell-free; conditions: read-out: PB (converted)
Staphylococcus aureus [16] = test: Antimicrobial activity against thymidine kinase-deficient methicillin-resistant Staphylococcus aureus AH1252 grown on CAMHB media after 24 hrs by broth microdilution method in presence of 50% human serum and 1 ug/ml thymidine; format: functional; conditions: AH1252, 24 h
Staphylococcus aureus [17] = test: Antimicrobial activity against methicillin-resistant Staphylococcus aureus AW6 grown on CAMHB media after 24 hrs by broth microdilution method in presence of 0.2 U/ml thymidine phosphorylase; format: functional; conditions: AW6, 24 h
Staphylococcus aureus [18] = test: Antimicrobial activity against thymidine kinase-deficient methicillin-resistant Staphylococcus aureus AH1252 grown on CAMHB media after 24 hrs by broth microdilution method in presence of 0.2 U/ml thymidine phosphorylase; format: functional; conditions: AH1252, 24 h
Staphylococcus aureus [19] = test: Antimicrobial activity against thymidine kinase-deficient methicillin-resistant Staphylococcus aureus AH1252 grown on CAMHB media after 24 hrs by broth microdilution method in presence of 50% rat serum; format: functional; conditions: AH1252, 24 h
Staphylococcus aureus [20] = test: Antimicrobial activity against methicillin-resistant Staphylococcus aureus AW6 grown on CAMHB media after 24 hrs by broth microdilution method in presence of 50% human serum; format: functional; conditions: AW6, 24 h
Staphylococcus aureus [21] = test: Bactericidal activity against methicillin-resistant Staphylococcus aureus AW6 at 3.5 ug/ml by time kill analysis in presence of 50% rat serum and 1 ug/ml thymidine; format: functional, organism-based
Staphylococcus aureus [22] = test: Antimicrobial activity against methicillin-resistant Staphylococcus aureus AW6 grown on CAMHB media after 24 hrs by broth microdilution method in presence of 50% human serum and 0.2 U/ml thymidine phosphorylase; format: functional; conditions: AW6, 24 h
Staphylococcus aureus [23] = test: Antimicrobial activity against thymidine kinase-deficient methicillin-resistant Staphylococcus aureus AH1252 grown on CAMHB media after 24 hrs by broth microdilution method in presence of protein depleted human serum; format: functional; conditions: AH1252, 24 h
Staphylococcus aureus [24] = test: Bactericidal activity against methicillin-resistant Staphylococcus aureus AW6 at 3.5 ug/ml by time kill analysis in presence of 50% rat serum and 0.2 U/ml thymidine phosphorylase; format: functional, organism-based
Staphylococcus aureus [25] = test: Antimicrobial activity against methicillin-resistant Staphylococcus aureus AW6 grown on CAMHB media after 24 hrs by broth microdilution method in presence of 50% rat serum; format: functional; conditions: AW6, 24 h
Staphylococcus aureus [26] = test: Bactericidal activity against thymidine kinase-deficient methicillin-resistant Staphylococcus aureus AH1252 assessed as loss of bacterial cell viability at 3.5 ug/ml measured within 8 hrs by time kill analysis in presence of 50% human serum; format: functional
Staphylococcus aureus [27] = test: Bactericidal activity against methicillin-resistant Staphylococcus aureus AW6 infected in in vitro human fibrin clot model assessed as log reduction in bacterial colony at 3.5 ug/ml after 24 hrs; format: functional
Staphylococcus aureus [28] = test: […] activity against methicillin-resistant Staphylococcus aureus AW6 assessed as loss of bacterial cell viability at 3.5 ug/ml by time kill analysis in presence of 50% rat serum; format: functional
Staphylococcus aureus [29] = test: Bactericidal activity against methicillin-resistant Staphylococcus aureus AW6 at 3.5 ug/ml by time kill analysis in presence of 50% human serum and 1 ug/ml thymidine; format: functional, organism-based
Staphylococcus aureus [30] = test: Antimicrobial activity against methicillin-resistant Staphylococcus aureus AW6 grown on CAMHB media after 24 hrs by broth microdilution method in presence of 50% human serum and 1 ug/ml thymidine; format: functional; conditions: AW6, 24 h
Staphylococcus aureus [31] = test: […] activity against methicillin-resistant Staphylococcus aureus AW6 assessed as loss of bacterial cell viability at 3.5 ug/ml measured within 8 hrs by time kill analysis in presence of 50% human serum; format: functional
Staphylococcus aureus [32] = test: Antimicrobial activity against thymidine kinase-deficient methicillin-resistant Staphylococcus aureus AH1252 grown on CAMHB media after 24 hrs by broth microdilution method in presence of 50% human serum; format: functional; conditions: AH1252, 24 h
[33] = Protein binding in human serum; format: ADME, cell-free; conditions: read-out: PB (converted)
Staphylococcus aureus [34] = test: Bactericidal activity against thymidine kinase-deficient methicillin-resistant Staphylococcus aureus AH1252 assessed as loss of bacterial cell viability at 3.5 ug/ml by time kill analysis in presence of 50% rat serum; format: functional, organism-based
[35] = Plasma protein binding in human; format: ADME, cell-free; conditions: read-out: PPB (converted)
Staphylococcus aureus [36] = test: Antimicrobial activity against methicillin-resistant Staphylococcus aureus AW6 grown on CAMHB media after 24 hrs by broth microdilution method in presence of 50% rat serum and 0.2 U/ml thymidine phosphorylase; format: functional; conditions: AW6, 24 h
Staphylococcus aureus [37] = test: Antimicrobial activity against thymidine kinase-deficient methicillin-resistant Staphylococcus aureus AH1252 grown on CAMHB media after 24 hrs by broth microdilution method in presence of 50% human serum and 0.2 U/ml thymidine phosphorylase; format: functional; conditions: AH1252, 24 h
Staphylococcus aureus [38] = test: Bactericidal activity against thymidine kinase-deficient methicillin-resistant Staphylococcus aureus AH1252 infected in in vitro human fibrin clot model assessed as log reduction in bacterial colony at 3.5 ug/ml after 24 hrs; format: functional
Staphylococcus aureus [39] = test: Bactericidal activity against thymidine kinase-deficient methicillin-resistant Staphylococcus aureus AH1252 infected in in vitro rat fibrin clot model assessed as reduction in bacterial colony at 3.5 ug/ml after 48 hrs; format: functional, organism-based
Staphylococcus aureus [40] = test: Antimicrobial activity against methicillin-resistant Staphylococcus aureus AW6 grown on CAMHB media after 24 hrs by broth microdilution method; format: functional; conditions: AW6, 24 h

For `CN[C@H](CC(C)C)C(=O)N[C@H]1C(=O)N[C@@H](CC(N)=O)C(=O)N[C@H]2C(=O)N[C@H]3C(=O)N[C@H](C(=O)N[C@H](C(=O)O)c4cc(O)cc(O)c4-c4cc3ccc4O)[C@H](O)c3ccc(c(Cl)c3)Oc3cc2cc(c3O[C@@H]2O[C@H](CO)[C@@H](O)[C@H](O)[C@H]2O[C@H]2C[C@](C)(N)[C@H](O)[C@H](C)O2)Oc2ccc(cc2Cl)[C@H]1O`, which Activity (Staphylococcus aureus [1]) is on record?
The Activity was “Active”.

What about the Activity (Staphylococcus aureus [2]) of the same compound?
Its Activity is “Active”.

What about the Activity (Staphylococcus aureus [3]) of the same compound?
Its Activity is “Active”.

And the Activity (Staphylococcus aureus [4])?
The Activity was “Active”.

What about the Activity (Staphylococcus aureus [5]) of the same compound?
Its Activity is “Active”.

And the Activity (Staphylococcus aureus [6])?
Its Activity is “Active”.

What about the Activity (Staphylococcus aureus [7]) of the same compound?
The Activity was “Active”.

What about the Activity (Staphylococcus aureus [8]) of the same compound?
Its Activity is “Active”.

Which results are given for `COc1cc(Cc2cnc(N)nc2N)c2c(c1OC)OC(C1CC1)C=C2` (stereo not given) [ICLAPRIM]?
Activity (Staphylococcus aureus [9]): Active; MIC (Staphylococcus aureus [10]): 0.03 µg/mL; MIC (Staphylococcus aureus [11]): 0.06 µg/mL; MIC (Staphylococcus aureus [12]): > 2 µg/mL; MIC (Staphylococcus aureus [13]): 0.03 µg/mL (≈ 0.0846 µM); MIC (Staphylococcus aureus [14]): 0.03 µg/mL; fraction unbound [15]: 0.1; MIC (Staphylococcus aureus [16]): 0.03 µg/mL; MIC (Staphylococcus aureus [17]): 0.03 µg/mL; MIC (Staphylococcus aureus [18]): 0.03 µg/mL; MIC (Staphylococcus aureus [19]): 0.03 µg/mL; MIC (Staphylococcus aureus [20]): 0.12 µg/mL; Activity (Staphylococcus aureus [21]): inactive; MIC (Staphylococcus aureus [22]): 0.2 µg/mL; MIC (Staphylococcus aureus [23]): 0.03 µg/mL; Activity (Staphylococcus aureus [24]): Active; MIC (Staphylococcus aureus [25]): > 2 µg/mL; log10CFU/ml (Staphylococcus aureus [26]): >=3; log10CFU/ml (Staphylococcus aureus [27]): >=3; log10CFU/ml (Staphylococcus aureus [28]): >=3; Activity (Staphylococcus aureus [29]): inactive; MIC (Staphylococcus aureus [30]): > 2 µg/mL; log10CFU/ml (Staphylococcus aureus [31]): >=3; MIC (Staphylococcus aureus [32]): 0.06 µg/mL; fraction unbound [33]: 0.05; Activity (Staphylococcus aureus [34]): Active; fraction unbound [35]: 0.07; MIC (Staphylococcus aureus [36]): 0.06 µg/mL; MIC (Staphylococcus aureus [37]): 0.06 µg/mL; log10CFU/ml (Staphylococcus aureus [38]): >=3; Activity (Staphylococcus aureus [39]): Active; MIC (Staphylococcus aureus [40]): 0.06 µg/mL (≈ 0.169 µM)
